Source: PMC6222558, “Synthesis and Evolution of Berberine Derivatives as a New Class of Antiviral Agents against Enterovirus 71 through the MEK/ERK Pathway and Autophagy” (Molecules : A Journal of Synthetic Chemistry and Natural …, 2018)

Tests used:
[1] = system: EV71 JS-52 strain (genotype C4); assay: CPE inhibition assay for anti-EV71, JS-52 strain; assay type: cell-based, enterovirus 71 (EV71); settings: Enterovirus A, EV71; Vero cells; CPE; calculated on the organic part; n = 3; read-out: JS-52 Strain IC50
Method in brief: (§1)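 Vero cells infected with 100 × TCID50 EV71 for 1 h at 37 °C in serum-free medium, unbound virus removed, then compounds added for 72 h. IC50 from inhibition of virus-induced CPE; TC50 as concentration giving 50% CPE at 72 h, with selectivity index; crystal violet staining for imaging.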

[2] = system: EV71 SHZH98 strain (genotype C4); assay: CPE inhibition assay for anti-EV71, SHZH98 strain; assay type: cell-based, enterovirus 71 (EV71); settings: Enterovirus A, EV71; Vero cells; CPE; calculated on the organic part; n = 3; read-out: SHZH98 Strain IC50
Method in brief: as §1

[3] = system: EV71 BrCr strain (VR-1775, genotype A); assay: CPE inhibition assay for anti-EV71, BrCr strain; assay type: cell-based, enterovirus 71 (EV71); settings: Enterovirus A, EV71; Vero cells; CPE; calculated on the organic part; n = 3; read-out: BrCr Strain IC50
Method in brief: as §1

[4] = system: EV71 VP1 RNA; assay: EV71 VP1 RNA by one-step qRT-PCR in infected Vero cells; assay type: cell-based, enterovirus 71 (EV71); settings: Vero cells infected with H strain; 24 h; better than BBR
Description: To further confirm the anti-EV71 activity, the VP1 down-regulatory activity of 2d was examined in Vero cells infected with H strain of EV71, in comparison with that of BBR. […] Accordingly, VP1 capsid protein expression was also analyzed to examine its effect on EV71 biological synthesis.
Vero cells (9 × 10^5 cells/well) were plated into 6-well culture plates and incubated for 16 h. The medium was removed and cells were infected with EV71 for 1 h (H). Various concentrations of compound 2d and BBR were supplemented for incubation of another 24 h. Total RNA of the infected cells was isolated using the RNeasy Mini kit (QIAGEN, Hilden, Germany) and the information of the primer was listed in the Table 2.
One-step qRT-PCR was performed with SuperScript III Platinum SYBR Green One-step RT-PCR Kit (Invitrogen, Carlsbad, CA, USA) using the ABI 7500 Fast real-time PCR system (Applied Biosystems, Carlsbad, CA, USA). PCR assay was carried out in a 25 μL volume and the target fragment amplification was carried out as follows: reverse transcription at 50 °C for 3 min; initial activation of HotStar Taq DNA Polymerase at 95 °C for 10 min; 40 cycles in two steps: 95 °C for 15 s, 60 °C for 30 s.

[5] = system: MEK/ERK signaling pathway; assay: Western blot of MEK/ERK phosphorylation in EV71-infected Vero cells; assay type: cell-based, African green monkey; settings: EV71 H, MOI = 0.1; 24 h treatment
Excerpt: The activation of the MEK/ERK signaling pathway has been certified to play an essential role in EV71 life cycle and pathogenesis in various cell types. […] To learn whether or not 2d would still act through MEK/ERK pathway as its parent BBR does, the inhibition experiment of EV71 via this signaling pathway was done with 2d using BBR as the reference. […] We can conclude that compound 2d inhibited the replication of EV71 through down-regulating MEK/ERK signaling pathway.
Cells were lysed in the M-PER mammalian protein extraction reagent (Thermo, Rockford, IL, USA) containing halt protease inhibitor single-use cocktail (Thermo). The protein concentration was determined by BCA Protein Assay Kit (Thermo). Equal amount of samples (15 μg proteins) were denatured and applied to sodium dodecyl sulfate-polyacrylamide gel electrophoresis (SDS-PAGE), and then electrophoresis products were transferred to a polyvinylidenefluoride (PVDF) film and blocked by 5% (w/v) milk or BSA at room temperature. An hour later, PVDF membranes were incubated at room temperature with specific primary antibody. After a standard washing, membranes were incubated with horse radish peroxidase (HRP)-labeled secondary antibody. The signals were detected using ECL detection kit (GE Healthcare Life Sciences, Pittsburgh, PA, USA). […]

For `COc1ccc2cc3[n+](cc2c1OCC(=O)OCc1ccccc1)CCc1cc2c(cc1-3)OCO2` [2d, 2,3-Methylenedioxy-9-benzyloxyformylmethylenoxy-10-methoxyprotoberberine chloride], which IC50 [1] is on record?
Its IC50 is 7.12 µM.

What about the IC50 [2] of the same compound?
The IC50 was 14.8 µM.

What about the IC50 [3] of the same compound?
Its IC50 is 8.52 µM.

What about the “VP1 RNA expression” value [4] of the same compound?
Its value is “significantly reduced VP1 RNA expression in a dose-dependently way”.

What about the “phosphorylation of MEK and ERK induced by EV71 infection” value [5] of the same compound?
The value was “significantly inhibit the phosphorylation of both MEK and ERK”.
